Assay results published in publication PMC11645656, “MRGPRX4 mediates phospho-drug associated pruritus in a humanized mouse model” (Science translational medicine, 2024).
“And” between values parts separate entries of the source, which are not always exact repeats. Equal entries are not always repeated. Where two headings read alike, the source gives them in different places.

Tests used:
MRGPRX4 S83L (L83) = MRGPRX4 S83L (L83) (Homo sapiens, UniProt Q96LA9); experiment: PRESTO-Tango β-arrestin recruitment assay, HTLA cells stably expressing S83L MRGPRX4; assay type: cell-based; details: single replicate
Procedure: HTLA cells, a cell line derived from HEK293 and engineered to stably express a tTA-dependent luciferase reporter and a β-arrestin2-TEV fusion gene, were generously provided by Richard Axel's laboratory. HTLA cells were cultured in growth medium containing 2 μg/ml puromycin and 100 μg/ml hygromycin B in 5% CO2 at 37 °C. Stably MRGPRX4-expressing HTLA cells were generated by transfecting pcDNA3.1(+)-Zeo containing MRGPRX4-Tango construct (either with WT or S83L mutant sequence) into HTLA cells with Lipofectamine 3000 and selecting the successful transfected clones with Zeocin.
HTLA cells stably expressing either WT or S83L MRGPRX4 were seeded in PDL-coated 96-well white clear bottom cell culture plates with DMEM containing 10% FBS, at a density of 35,000 cells per well and were allowed to attach to the bottom of the wells overnight. The next day, growth medium was replaced with 100 μl of serum-free medium containing the tested drugs at various concentrations, and the cells were then incubated at 37°C for 24 h. On the following day, media with drug solutions was removed and 50 μl per well of Bright-Glo™ Reagent from Bright-Glo™ Luciferase Assay System (Promega) was loaded. The plate was incubated at room temperature in the dark for 5 min, and the relative luminescence units were measured using the Flexstation-3 instrument with SoftMax®Pro 7.1 software (Molecular Devices). Dose response curves and EC50s were analyzed as described above.
MRGPRX4 by β-arrestin (Tango) recruitment assay. Data are from three independent experiments,
performed in triplicate, and depicted as mean ± SEM.

MRGPRX4 R95A = target: T1, MRGPRX4 R95A (Homo sapiens, UniProt Q96LA9, L83S/R95A); experiment: Calcium mobilization assay (FLIPR), MRGPRX4 R95A mutant; assay type: cell-based
T1 construct: expressed in transfected cells; host or cells: HEK293T, transient
Source text: Fig. 3. […] (A) Cryo-EM density map of MRGPRX4-Gq in complex with fospropofol. (B) The density map of fospropofol and R82 of MRGPRX4. (C and D) Key molecular interactions between fospropofol and the hydrophilic (C) and hydrophobic (D) part of the agonist binding pocket of MRGPRX4. Amino acid residues interacting with fospropofol are shown as sticks. Hydrogen bond is shown as cyan dashed lines. […] Data are from at least three independent experiments, each performed in triplicate, and reported as the mean ± SEM. (E) and (F) were collected from the same sets of experiments.
To generate murine Mrgprs expressing cells, HEK293T cells (ATCC) were seeded on poly-D-lysine coated 96 well plate at 25,000 cells per well one day prior to transfection. HEK293T cells were transiently co-transfected with the mammalian expression plasmids carrying cDNA encoding the murine Mrgpr genes and plasmid inserted with cDNA encoding murine α-subunit of the heterotrimeric G15 protein (Gα15) in triplicates using Lipofectamine LTX reagents (Thermo Scientific). To generate WT, S83L, and alanine mutant MRGPRX4-expressing cells, HEK293T cells were seeded on poly-D-lysine coated 384 well plate at 12,000 cells per well one day prior to transfection. […]

[1] = cited from earlier work
MRGPRX4 WT (S83) = MRGPRX4 WT (S83) (Homo sapiens, UniProt Q96LA9, L83S); experiment: Calcium mobilization assay (FLIPR), WT (S83) MRGPRX4 transiently expressed in HEK293T cells; assay type: cell-based; parameters: expressed in transfected cells; host or cells: HEK293T, transient; details: for EC50: WT (S83), Fig. 4E, unit not in the head, taken from Concentration (M) of the sheet and pEC50 [M] of Fig. 4E; for Calcium mobilization response (Fig. 4D dose-response) / calcium mobilization response (Fig. 3E and 3F dose-response): WT; for Calcium mobilization response (Fig. 4D dose-response): each cell one replicate; for Potency at S83- vs L83-MRGPRX4: calcium mobilization, compared with S83L (A17)
Source text: Fig. 4. […] Hydrogen bond is shown as cyan dashed lines. […] Data are from three independent experiments, performed in triplicate. (E) pEC50 plots of various agonists toward S83- and L83-MRGPRX4 through calcium mobilization assay. […] Each data point represents an independent experiment, performed in triplicate. The extra sum-of-square F test was used to examine the difference in EC50 values. One-sided t-test was used for nateglinide. *p< 0.05, **p< 0.01 and ***p< 0.001. ns = no statistical significance. Both (D) and (E) are reported as the mean ± SEM. N.D.= no detectable response ≤ 100 μM.
HEK293 cells and MRGPRX4 stably expressed HEK293 cells were seeded in 100 μl culture media on 96-well plates at a density of 40,000 cells per well and incubated overnight. The next day, the media were replaced with a dye-loading solution from the FLIPR Calcium 5 assay kit (Molecular Devices), diluted in Hank's Balanced Salt Solution (HBSS) with 20 mM HEPES, pH 7.4. After 1 h of incubation at 37°C, cells were allowed to recover for 10 min in the dark at room temperature prior to performing intracellular calcium mobilization assay in a Flexstation-3 instrument with SoftMax®Pro 7.1 software (Molecular Devices). Serial concentrations of tested drugs were prepared in HBSS/HEPES solution at 3X concentration. […] Compounds were tested in triplicates and the signals were averaged. Responses were determined by subtracting the minimum signal (at the baseline before adding the drug) from the maximum signal (obtained after drug stimulation). Four-parameter logistic (4PL) curve fit was used to plot the dose-response curves. […] Both dose-response curve fitting and EC50s calculation are computed with GraphPad Prism software (version: 6.o or above).
To generate murine Mrgprs expressing cells, HEK293T cells (ATCC) were seeded on poly-D-lysine coated 96 well plate at 25,000 cells per well one day prior to transfection. HEK293T cells were transiently co-transfected with the mammalian expression plasmids carrying cDNA encoding the murine Mrgpr genes and plasmid inserted with cDNA encoding murine α-subunit of the heterotrimeric G15 protein (Gα15) in triplicates using Lipofectamine LTX reagents (Thermo Scientific). To generate WT, S83L, and alanine mutant MRGPRX4-expressing cells, HEK293T cells were seeded on poly-D-lysine coated 384 well plate at 12,000 cells per well one day prior to transfection. Mammalian expression plasmids pLX304 (vector from Addgene) carrying different MRGPRX4 coding sequences were transiently transfected into HEK293T cells in triplicates with Lipofectamine LTX reagents (Thermo Scientific). Intracellular calcium mobilization assays were performed after one day of transfection. Murine Mrgprs tested include Mrgpra1, Mrgpra2a, Mrgpra2b, Mrgpra3, Mrgpra4, Mrgpra6, Mrgpra9, Mrgpra10, Mrgpra11, Mrgpra12, Mrgpra14, Mrgprb5, Mrgprb6, Mrgprb10, Mrgprb11, and Mrgprc11. WT and mutant MRGPRX4 constructs tested include WT, S83L, R82A, R86A, R95A, W158A, Y250A, and Y254A.

MRGPRX4 S83L (L83), sequence (Q96LA9 whole entry, stated change not applied, the tested form may be a part): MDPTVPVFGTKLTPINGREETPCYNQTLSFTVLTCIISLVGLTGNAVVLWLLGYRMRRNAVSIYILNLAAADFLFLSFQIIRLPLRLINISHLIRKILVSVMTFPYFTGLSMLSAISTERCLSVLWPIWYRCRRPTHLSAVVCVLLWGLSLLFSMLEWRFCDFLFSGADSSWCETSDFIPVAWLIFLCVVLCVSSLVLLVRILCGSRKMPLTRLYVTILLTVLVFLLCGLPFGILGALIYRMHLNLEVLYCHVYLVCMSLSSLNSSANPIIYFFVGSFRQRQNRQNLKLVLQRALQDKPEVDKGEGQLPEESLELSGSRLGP
MRGPRX4 WT (S83), sequence (Q96LA9 whole entry L83S): as the sequence (Q96LA9 whole entry, stated change not applied, the tested form may be a part) above, with L83S counted along it
T1 sequence (Q96LA9 whole entry L83S/R95A): as the sequence (Q96LA9 whole entry, stated change not applied, the tested form may be a part) above, with L83S, R95A counted along it

Q: What does the source list for `O=C1NC(c2ccccc2)(c2ccccc2)C(=O)N1COP(=O)(O)O` [Fosphenytoin]?
A: fig. S7 response (raw signal), concentration-response (MRGPRX4 S83L (L83); 3.91e-6 M): 13508.2; fig. S7 response (raw signal), concentration-response (MRGPRX4 S83L (L83); 7.81e-6 M): 22144.4; Calcium mobilization response at alanine mutant R95A vs WT (MRGPRX4 R95A): either greatly attenuated or abolished; Solubility relative to parent drug ([1]; vs phenytoin): 4500 fold; EC50 (MRGPRX4 WT (S83); read-out: EC50s (each well represents individual experiment)): 7.21e-07 M and 5.46e-06 M and 1.46e-06 M; Calcium mobilization response (Fig. 4D dose-response) (MRGPRX4 WT (S83); 5.65e-9 M): -11.5543; calcium mobilization response (Fig. 3E and 3F dose-response) (MRGPRX4 WT (S83); 4.12e-6 M): 76.9188; Calcium mobilization response (Fig. 4D dose-response) (MRGPRX4 WT (S83); 4.12e-6 M): 76.9188; calcium mobilization response (Fig. 3E and 3F dose-response) (MRGPRX4 WT (S83); 1.23e-5 M): 82.4819; Potency at S83- vs L83-MRGPRX4 (MRGPRX4 WT (S83)): improved potency at S83-MRGPRX4

Q: Which “fig. S7 response (raw signal), concentration-response” value (MRGPRX4 S83L (L83); 1.95e-8 M) does the source give for `CC(C)c1cccc(C(C)C)c1OCOP(=O)(O)O` [Fospropofol] here?
A: 10514

Q: What about the “Calcium mobilization response at alanine mutant R95A vs WT” value (MRGPRX4 R95A) of the same molecule?
A: either greatly attenuated or abolished

Q: And the “Solubility relative to parent drug” value ([1]; vs propofol)?
A: 3000 fold

Q: And the EC50 (MRGPRX4 WT (S83); EC50s (each well represents individual experiment))?
A: 2.8e-08 M and 4.03e-08 M and 1.9e-08 M

Q: What about the “calcium mobilization response (Fig. 3E and 3F dose-response)” value (MRGPRX4 WT (S83); 4.57e-8 M) of the same molecule?
A: 59.0909

Q: And the “calcium mobilization response (Fig. 3E and 3F dose-response)” value (MRGPRX4 WT (S83); 4.12e-7 M)?
A: 88.6023

Q: And the “Calcium mobilization response (Fig. 4D dose-response)” value (MRGPRX4 WT (S83); 4.12e-7 M)?
A: 88.6023

Q: What about the “Potency at S83- vs L83-MRGPRX4” value (MRGPRX4 WT (S83)) of the same molecule?
A: improved potency at S83-MRGPRX4
